Data: patent US12575572B2, “Systems, methods, and apparatuses for disinfection and decontamination” (priority 2020, dated 2026)

Tested on: Phi6 bacteriophage (surrogate for Coronavirus and Ebola)

[O][Cl+][O-] [ClO2, chlorine dioxide]
virions recovered from treated coupons: no virions were recovered
